# Measured values from PMC4890880 (ACS infectious diseases, 2016).
# pIC50: −log10 of the molar value. Structures can show the parent of a compound that is named as a salt. Where two headings read alike, the source gives them in different places.
# Experiments:
# [1] = system: P. falciparum 3D7 parasites; assay: Asexual erythrocytic-stage SYBR Green I proliferation assay, 1536-well; assay type: cell-based, Plasmodium falciparum
# [2] = system: Plasmodium berghei (Pb-Luc) exoerythrocytic-stage parasites; assay: microbe, parasite or virus in culture; conditions: for inhibition at 10 µM: read-out: PbLuc max inhibition (%) @ 10 uM
# HepG2-A16-CD81EGFP cells = assay: cells; conditions: Homo sapiens; for pIC50: HepG2, read-out: Tox IC50; for inhibition at 10 µM: HepG2, read-out: Tox max inhibition (%) @ 10 uM
# [3] = system: Pb-Luc exoerythrocytic-stage parasites in Huh7.5.1 cells; assay: Pb-Luc time of action assay (modified 384-well luciferase assay); conditions: Plasmodium berghei
# [4] = system: Plasmodium cynomolgi exoerythrocytic-stage small (hypnozoites) and large (liver stage schizonts) parasites; assay: P. cynomolgi liver assay in primary hepatocytes; conditions: Plasmodium cynomolgi, Hepatocyte
# [5] = biological target: QuantiLum Recombinant Luciferase (Photinus pyralis, UniProt P08659); assay: Bioluminescence quantification of compound luciferase inhibition; conditions: for Emax: read-out: LucInhib max inhibition
# [6] = Plasmodium falciparum, 3D7, read-out: P. falciparum (blood) IC50
# [7] = read-out: P. berghei (liver) IC50
# [8] = Plasmodium falciparum, 3D7, read-out: P. falciparum (blood) IC50, Table S1, validation set of 50 antimalarials
# [9] = read-out: P. berghei (liver) IC50, Table S1, validation set of 50 antimalarials, Pb-Luc
# [10] = HepG2, read-out: HepG2 Tox% @ 50 uM rep1
# [11] = HepG2, read-out: HepG2 Tox% @ 50 uM rep2
# [12] = Huh-7.5.1, read-out: Pb-Luc IC50, Treatment: 1
# [13] = Huh-7.5.1, read-out: Pb-Luc IC50, Treatment: 2
# [14] = Huh-7.5.1, read-out: Pb-Luc IC50, Treatment: 3
# [15] = Huh-7.5.1, read-out: Pb-Luc IC50, Treatment: 4
# [16] = Huh-7.5.1, read-out: Pb-Luc IC50, Treatment: 5
# [17] = Huh-7.5.1, read-out: Pb-Luc IC50, Treatment: 6
# [18] = read-out: % inhibition normalized to untreated control, Large
# [19] = read-out: % inhibition normalized to untreated control, Small
# [20] = read-out: Inhibition% @ 50 uM rep1
# [21] = read-out: Inhibition% @ 50 uM rep2
# [22] = read-out: PbLuc IC50, dose response, 1/3 dilutions, max conc. 10 or 50 uM, unit inferred
# Sequence of QuantiLum Recombinant Luciferase (P08659 whole entry): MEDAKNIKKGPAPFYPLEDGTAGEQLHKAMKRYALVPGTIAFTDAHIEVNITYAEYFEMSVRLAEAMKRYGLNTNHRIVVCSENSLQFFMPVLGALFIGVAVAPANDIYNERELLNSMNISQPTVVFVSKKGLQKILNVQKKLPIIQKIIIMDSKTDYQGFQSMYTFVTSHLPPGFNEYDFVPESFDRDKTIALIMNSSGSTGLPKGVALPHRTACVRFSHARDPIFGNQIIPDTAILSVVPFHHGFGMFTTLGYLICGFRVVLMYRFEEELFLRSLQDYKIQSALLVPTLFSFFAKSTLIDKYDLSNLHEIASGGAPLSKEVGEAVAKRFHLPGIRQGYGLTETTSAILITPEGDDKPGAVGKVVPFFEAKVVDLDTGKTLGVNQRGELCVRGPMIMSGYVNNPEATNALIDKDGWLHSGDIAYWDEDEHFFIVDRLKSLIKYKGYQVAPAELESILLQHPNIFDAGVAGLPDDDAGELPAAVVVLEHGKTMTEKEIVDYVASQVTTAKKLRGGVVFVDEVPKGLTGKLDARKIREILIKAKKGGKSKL
smiles,measurement,setting,value
"C=C(NC(=O)C(=C)NC(=O)c1csc(C2=N[C@@H]3c4csc(n4)[C@H]4NC(=O)c5csc(n5)[C@H]([C@](C)(O)[C@@H](C)O)NC(=O)[C@H]5CSC(=N5)/C(=C/C)NC(=O)[C@H]([C@@H](C)O)NC(=O)c5csc(n5)[C@]3(CC2)NC(=O)[C@H](C)NC(=O)C(=C)NC(=O)[C@H](C)NC(=O)[C@H]([C@@H](C)CC)N[C@@H]2C=Cc3c([C@H](C)O)cc(nc3[C@H]2O)C(=O)O[C@@H]4C)n1)C(N)=O [Thiostrepton, reference compound]",pIC50,[1]; [6],5.72
same,pIC50,[2]; [7],5.50
"c1cc([C@H]2CC[C@]3(CC2)OO[C@]2(O3)C3CC4CC(C3)CC2C4)ccc1OCCN1CCOCC1 [OZ439, reference compound]",pIC50,[1]; [8],8.55
same,pIC50,[2]; [9],5.28
"Nc1ccc(S(=O)(=O)c2ccc(N)cc2)cc1 [Dapsone, reference compound]",pIC50,[1]; [8],< 4.20
same,pIC50,[2]; [9],5.61
"O=CN(O)CCCP(=O)(O)O [Fosmidomycin, reference compound]",pIC50,[1]; [8],< 5.00
same,pIC50,[2]; [9],< 4.90
COc1ccccc1CNC(=O)CCn1c(=O)[nH]c2ccccc2c1=O [MMV665916],cytotoxicity at 50 µM,HepG2-A16-CD81EGFP cells; [10],-21%
same,cytotoxicity at 50 µM,HepG2-A16-CD81EGFP cells; [11],-23%
same,pIC50,HepG2-A16-CD81EGFP cells,< 5.00
same,inhibition at 10 µM,HepG2-A16-CD81EGFP cells,-2.14%
same,pIC50,[3]; [12],5.24
same,pIC50,[3]; [13],5.24
same,pIC50,[3]; [14],5.09
same,pIC50,[3]; [15],5.37
same,pIC50,[3]; [16],6.10
same,pIC50,[3]; [17],6.43
same,inhibition at 0.1 µM,[4]; [18],6%
same,inhibition at 1 µM,[4]; [18],2%
same,inhibition at 10 µM,[4]; [18],-13%
same,inhibition at 0.1 µM,[4]; [19],20%
same,inhibition at 1 µM,[4]; [19],-13%
same,inhibition at 10 µM,[4]; [19],-15%
same,pIC50,[5],< 4.70
same,Emax,[5],15%
same,inhibition at 50 µM,[2]; [20],99%
same,inhibition at 50 µM,[2]; [21],99%
same,pIC50,[2]; [22],7.35
same,inhibition at 10 µM,[2],100%
"CO[C@H]1O[C@@H]2O[C@@]3(C)CC[C@H]4[C@H](C)CC[C@@H]([C@H]1C)[C@@]24OO3 [Artemether, reference compound]",pIC50,[1]; [8],> 9.40
same,pIC50,[2]; [9],5.50
"CN(C)[C@@H]1C(O)=C(C(N)=O)C(=O)[C@@]2(O)C(O)=C3C(=O)c4c(O)cccc4[C@@](C)(O)[C@H]3C[C@@H]12 [Tetracycline, reference compound]",pIC50,[1]; [8],< 5.00
same,pIC50,[2]; [7],< 4.90
"[H]/N=C(\N/C(=N/[H])Nc1ccc(Cl)cc1)NC(C)C [Proguanil HCL, reference compound]",pIC50,[1]; [8],5.20
same,pIC50,[2]; [9],5.34
"C[C@@H]1CC[C@H]2[C@@H](C)C(=O)O[C@@H]3O[C@@]4(C)CC[C@@H]1[C@]32OO4 [Artemisinin, reference compound]",pIC50,[1]; [8],8.33
same,pIC50,[2]; [9],5.77
"Cc1cc2nc3c(=O)[nH]c(=O)nc-3n(C[C@H](O)[C@H](O)[C@H](O)CO)c2cc1C [Riboflavin, reference compound]",pIC50,[1]; [8],< 4.20
same,pIC50,[2]; [9],< 4.90
"CCN(CC)CCCC(C)Nc1cc(OC)cc2cccnc12 (centres unmarked) [Pamaquine, reference compound]",pIC50,[1]; [8],< 5.00
same,pIC50,[2]; [9],< 4.90
"CCCCN(CCCC)CCC(O)c1cc2c(Cl)cc(Cl)cc2c2cc(C(F)(F)F)ccc12 (centres unmarked) [Halofantrine, reference compound]",pIC50,[1]; [8],8.82
same,pIC50,[2]; [9],5.55
"COc1ccc2nc3cc(Cl)ccc3c(Nc3cc(CN4CCCC4)c(O)c(CN4CCCC4)c3)c2n1 [Pyronaridine, reference compound]",pIC50,[1]; [8],8.02
same,pIC50,[2]; [9],5.17
"COc1ncnc(NS(=O)(=O)c2ccc(N)cc2)c1OC [Sulfadoxine, reference compound]",pIC50,[1]; [8],< 4.20
same,pIC50,[2]; [9],7.13
"CC1(C)N=C(N)N=C(N)N1c1ccc(Cl)cc1 [Cycloguanil, reference compound]",pIC50,[1]; [8],8.51
same,pIC50,[2]; [9],8.15
"CCN(CCO)CCCC(C)Nc1ccnc2cc(Cl)ccc12 (centres unmarked) [Hydroxychloroquine, reference compound]",pIC50,[1]; [8],7.86
same,pIC50,[2]; [9],< 4.90
"O=C(NCCN1CCCC1)c1cc(-c2ccc(CN3CCOCC3)cc2)nc2ccc(F)cc12 [DDD107498, reference compound]",pIC50,[3]; [12],8.66
same,pIC50,[3]; [13],8.80
same,pIC50,[3]; [14],9.10
same,pIC50,[3]; [15],8.96
same,pIC50,[3]; [16],9.05
same,pIC50,[3]; [17],9.15
"C[C@@H]1C[C@@H]([C@H](O)CC2CC(=O)NC(=O)C2)C(=O)[C@@H](C)C1 [Cycloheximide, reference compound]",pIC50,[1]; [6],8.74
same,pIC50,[2]; [7],7.68
"C=C[C@H]1C[N@@]2CC[C@H]1C[C@@H]2[C@@H](O)c1ccnc2ccc(OC)cc12 [Quinidine, reference compound]",pIC50,[1]; [8],8.54
same,pIC50,[2]; [9],< 4.90
"C[C@H]1[C@H](OC(=O)CCC(=O)O)O[C@@H]2O[C@@]3(C)CC[C@H]4[C@H](C)CC[C@@H]1[C@@]24OO3 [Artesunate, reference compound]",pIC50,[1]; [8],9.05
same,pIC50,[2]; [9],6.61
"C[C@H]1[C@H](N2CCS(=O)(=O)CC2)O[C@@H]2O[C@@]3(C)CC[C@H]4[C@H](C)CC[C@@H]1[C@@]24OO3 [Artemisone, reference compound]",pIC50,[1]; [8],9.15
same,pIC50,[2]; [9],6.75
"CC(=O)N(O)CCCCCNC(=O)CCC(=O)N(O)CCCCCNC(=O)CCC(=O)N(O)CCCCCN [Deferoxamine, reference compound]",pIC50,[1]; [8],< 5.00
same,pIC50,[2]; [9],< 4.90
"N=C(N)c1ccc(OCCCCCOc2ccc(C(=N)N)cc2)cc1 [Pentamidine, reference compound]",pIC50,[1]; [8],9.30
same,pIC50,[2]; [9],6.54
"COc1cc(C)c2c(Oc3cccc(C(F)(F)F)c3)c(OC)cc(NC(C)CCCN)c2n1 (centres unmarked) [Tafenoquine, reference compound]",pIC50,[1]; [8],5.55
same,pIC50,[2]; [9],5.23
"CCN(CC)CCCC(C)Nc1ccnc2cc(Cl)ccc12 (centres unmarked) [Chloroquine, reference compound]",pIC50,[1]; [6],8.68
same,pIC50,[2]; [7],< 4.90
"CCN(CC)Cc1cc(Nc2ccnc3cc(Cl)ccc23)ccc1O [Amodiaquine, reference compound]",pIC50,[1]; [8],< 4.20
same,pIC50,[2]; [9],5.80
"COc1cc(NC(C)CCCN)c2ncccc2c1 (centres unmarked) [Primaquine, reference compound]",inhibition at 0.1 µM,[4]; [18],1%
same,inhibition at 1 µM,[4]; [18],3%
same,inhibition at 10 µM,[4]; [18],13%
same,inhibition at 0.1 µM,[4]; [19],4%
same,inhibition at 1 µM,[4]; [19],19%
same,inhibition at 10 µM,[4]; [19],24%
same,pIC50,[1]; [6],6.16
same,pIC50,[2]; [7],6.15
Cc1ccc(N2C3c4ccccc4N(S(=O)(=O)c4ccc(C)cc4)C2c2ccccc2N3S(=O)(=O)c2ccc(C)cc2)cc1 [MMV007160],cytotoxicity at 50 µM,HepG2-A16-CD81EGFP cells; [10],-4.53%
same,cytotoxicity at 50 µM,HepG2-A16-CD81EGFP cells; [11],-10%
same,pIC50,HepG2-A16-CD81EGFP cells,< 5.00
same,inhibition at 10 µM,HepG2-A16-CD81EGFP cells,10%
same,pIC50,[3]; [12],6.10
same,pIC50,[3]; [13],6.54
same,pIC50,[3]; [14],5.54
same,pIC50,[3]; [15],6.75
same,pIC50,[3]; [16],6.70
same,pIC50,[3]; [17],6.75
same,inhibition at 0.1 µM,[4]; [18],17%
same,inhibition at 1 µM,[4]; [18],14%
same,inhibition at 10 µM,[4]; [18],0%
same,inhibition at 0.1 µM,[4]; [19],17%
same,inhibition at 1 µM,[4]; [19],-25%
same,inhibition at 10 µM,[4]; [19],-11%
same,pIC50,[5],< 4.70
same,Emax,[5],14%
same,inhibition at 50 µM,[2]; [20],103%
same,inhibition at 50 µM,[2]; [21],105%
same,pIC50,[2]; [22],7.44
same,inhibition at 10 µM,[2],110%
"CN(C)c1ccc2nc3ccc(=[N+](C)C)cc-3sc2c1 [Methylene Blue, reference compound]",pIC50,[1]; [8],5.10
same,pIC50,[2]; [9],7.02
"CCCCN(CCCC)CC(O)c1cc(Cl)cc2c1-c1ccc(Cl)cc1/C2=C/c1ccc(Cl)cc1 (centres unmarked) [Lumefantrine, reference compound]",pIC50,[1]; [8],8.14
same,pIC50,[2]; [9],< 4.90
"Nc1ccc(S(=O)(=O)Nc2ncccn2)cc1 [Sulfadiazine, reference compound]",pIC50,[1]; [8],< 4.20
same,pIC50,[2]; [7],7.80
"C=C[C@H]1C[N@@]2CC[C@H]1C[C@H]2[C@H](O)c1ccnc2ccc(OC)cc12 [Quinine sulfate dihydrate, reference compound]",pIC50,[1]; [8],7.91
same,pIC50,[2]; [9],< 4.90
"OC(c1cc(C(F)(F)F)nc2c(C(F)(F)F)cccc12)C1CCCCN1 (centres unmarked) [Mefloquine (+ RS), Mefloquine, reference compound]",pIC50,"[1]; read-out: P. falciparum (blood) IC50, Table S1, validation set of 50 antimalarials",7.78
same,pIC50,[2]; [9],5.63
"Clc1ccc2c(N3CCN(CCCN4CCN(c5ccnc6cc(Cl)ccc56)CC4)CC3)ccnc2c1 [Piperaquine, reference compound]",pIC50,[1]; [8],7.14
same,pIC50,[2]; [9],< 4.90
"CC[C@H]1OC(=O)[C@H](C)[C@@H](O[C@H]2C[C@@](C)(OC)[C@@H](O)[C@H](C)O2)[C@H](C)[C@@H](O[C@@H]2O[C@H](C)C[C@H](N(C)C)[C@H]2O)[C@](C)(O)C[C@@H](C)CN(C)[C@H](C)[C@@H](O)[C@]1(C)O [Azithromycin, reference compound]",pIC50,[1]; [8],6.59
same,pIC50,[2]; [9],< 4.90
"CC(C)(N)CNC(=O)C[C@H]1CC[C@]2(CC1)OO[C@]1(O2)C2CC3CC(C2)CC1C3 [OZ277, reference compound]",pIC50,[1]; [8],8.64
same,pIC50,[2]; [9],5.79
